Measurements published in patent publication US10377741B2, “Substituted heteroaryl aldehyde compounds and methods for their use in increasing tissue oxygenation” (Global Blood Therapeutics, Inc., priority 2011, dated 2019).

Columns and labels:
[1] = system: whole blood; experiment: Whole blood assay: oxygen equilibrium curves of whole blood; assay type: cell-based, human (homozygous sickle cell patients); details: compound at 1000 μM; hematocrit 20%, 1 hour at 37° C.
Experimental: Oxygen Equilibrium Curves (OEC) of whole blood before and after treatment with different concentrations of substituted benzaldehyde compounds were performed as follows using a HEMOX analyzer (TCS Scientific, New Hope, Pa.). Blood samples from homozygous sickle cell patients were obtained though the Hemoglobinopathy Center at Children's Hospital Oakland Research Institute (CHORI) with Institutional Review Board approval. The hematocrit was adjusted to 20% using autologous plasma and the blood samples were incubated for 1 hour at 37° C. in absence or presence of compounds. 100 μl of these samples were added to 5 mL of Hemox buffer (30 mM TES, 130 mM NaCl, 5 mM KCl, pH=7.4) at 37° C. and then transferred to the Hemox sample chamber. The samples were saturated with oxygen by flushing with compressed air for 10 minutes. The samples were then flushed with pure nitrogen and the respective absorbances of oxy- and deoxy-Hb are recorded as a function of the solution pO2. The oxygen equilibrium data were then fitted to the Hill Model to obtain values for p50. The deoxygenation curves for both whole blood alone (control) and whole blood in the presence of the compound were collected with the TCS software.
Table 5 below lists the delta p50% values where + indicates a delta p50% of between 0 and 29, ++ indicates a delta p50% of between 30 and 50, and +++ indicates a delta p50% of 50 or greater. Unless noted otherwise, the compounds in Table 2 were tested at 1000 μM.

[2] = target: T1, purified Hemoglobin S (HbS) (Homo sapiens, UniProt P68871+P69905, E7V); experiment: Modulation of hemoglobin oxygen affinity: oxygen equilibrium curves (HEMOX) in purified HbS; assay type: biochemical, human (homozygous sickle cell patients); details: compound at 30 μM; 25 μM purified HbS, 45 min at 37° C.
T1 construct: HbS was purified by a modified procedure; from tissue; host or cells: blood of homozygous sickle cell patients (CHORI); for the polymerization assay purified by the CRO VIRUSYS
Procedure, shortened: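 HbS from homozygous sickle cell patient blood, 25 μM in HEMOX buffer pH 7.4, incubated 45 min at 37° C with compound (30 μM unless noted). Air-saturated then deoxygenated with N2; p50 from Hill fit; delta p50% = (control p50 − treated p50)/control p50 × 100.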

[3] = target: T2, HbS/A (Homo sapiens, UniProt P68871+P69905, E7V); experiment: R/T assay (relaxed-to-tense transition under deoxygenated conditions); assay type: biochemical, human (homozygous sickle cell patients); details: compound at 9 μM; 3 μM HbS/A; % R remaining vs no treatment
T2 construct: A mixture of HbS/A was purified from blood; from tissue; host or cells: blood of homozygous sickle cell patients (CHORI)
Experimental: A relaxed-to-tense transition assay (“R/T assay”) was used to determine the ability of substituted benzaldehyde compounds to maintain the high-oxygen affinity relaxed (R) state of hemoglobin under deoxygenated conditions. This ability can be expressed as a “delta R” value (i.e., the change in the time-period of the R state after hemoglobin is treated with a compound, as compared to the period without treatment with the compound). Delta R is the % R to remaining after the compounds treatment compared with no treatment (e.g. if R % without treatment is 8% while with treatment with a target compound is 48% R at 30 μM, then % R is 40% for that compound.
A mixture of HbS/A was purified from blood obtained from homozygous sickle cell patients though the Hemoglobinopathy Center at Children's Hospital Oakland Research Institute (CHORI) with Institutional Review Board approval. HbS/A (at a final concentration of 3 μM) was incubated for 1 hr at 37° C. in presence or absence of compounds in […] potassium phosphate buffer, pH=7.4 and 30 μM 2, 3 diphosphoglycerate (DPG) in 96 well plates in a final volume of 160 μl. Compounds were added at different concentrations (3 μM to 100 μM final concentrations). Plates were covered with a Mylar film. After incubation was completed the Mylar cover was removed and the plates were placed in a Spectrostar Nano plate reader previously heated at 37° C. Five minutes later, N2 (flow rate=20 L/min) was flowed through the spectrophotometer. Spectroscopic measurements (300 nm to 700 nm) were taken every 5 min for 2 hours. Data analysis was performed by using linear regression from the data retrieved for all wavelengths.
Table 4 below lists the delta R values where + indicates a delta R of between 0 and 30, ++ indicates a delta R of between 30 and 50, and +++ indicates a delta R of 50 or greater. Unless noted otherwise, the compounds in Table 2 were tested at 30 μM.

COc1cc(C=O)c(OCc2nccc3ccccc23)cn1 [Compound 44, 5-(isoquinolin-1-ylmethoxy)-2-methoxyisonicotinaldehyde]
delta p50% Values for Whole Blood Assay [1]: + (a delta p50% of between 0 and 29)
delta p50% [2]: +++ (a delta p50% of 50 or greater)

COc1cc(C=O)c(OCc2cccn3c(C)nnc23)cn1 [Compound 58, 2-methoxy-5-((3-methyl-[1,2,4]triazolo[4,3-a]pyridin-8-yl)methoxy)isonicotinaldehyde]
delta R [3]: + (a delta R of between 0 and 30)
delta p50% Values for Whole Blood Assay [1]: + (a delta p50% of between 0 and 29)
delta p50% [2]: ++ (a delta p50% of between 30 and 50)

COc1cc(C=O)c(OCc2cccnc2-c2ccn[nH]2)cn1 [Compound 65, 5-((2-(1H-pyrazol-5-yl)pyridin-3-yl)methoxy)-2-methoxyisonicotinaldehyde]
delta R [3]: + (a delta R of between 0 and 30)
delta p50% Values for Whole Blood Assay [1]: + (a delta p50% of between 0 and 29)
delta p50% [2]: ++ (a delta p50% of between 30 and 50)

COc1cc(C=O)c(OCc2cncc(-c3ccnn3C)c2)cn1 [Compound 74, 2-methoxy-5-((5-(1-methyl-1H-pyrazol-5-yl)pyridin-3-yl)methoxy)isonicotinaldehyde]
delta p50% Values for Whole Blood Assay [1]: ++ (a delta p50% of between 30 and 50)
delta p50% [2]: ++ (a delta p50% of between 30 and 50)

COc1cc(C=O)c(OCc2cncc(C(=O)O)c2)cn1 [Compound 79, 5-((4-formyl-6-methoxypyridin-3-yloxy)methyl)nicotinic acid]
delta R [3]: ++ (a delta R of between 30 and 50)
delta p50% Values for Whole Blood Assay [1]: + (a delta p50% of between 0 and 29)
delta p50% [2]: ++ (a delta p50% of between 30 and 50)

COc1cc(C=O)c(OCc2cnc3ccccc3c2)cn1 [Compound 80, 2-methoxy-5-(quinolin-3-ylmethoxy)isonicotinaldehyde]
delta R [3]: +++ (a delta R of 50 or greater)
delta p50% Values for Whole Blood Assay [1]: + (a delta p50% of between 0 and 29)
delta p50% [2]: ++ (a delta p50% of between 30 and 50)

Cc1ccc(OCc2cccc3cnn(C)c23)c(C=O)n1 [Compound 92, 6-methyl-3-((1-methyl-1H-indazol-7-yl)methoxy)picolinaldehyde]
delta R [3]: + (a delta R of between 0 and 30)
delta p50% Values for Whole Blood Assay [1]: + (a delta p50% of between 0 and 29)
delta p50% [2]: ++ (a delta p50% of between 30 and 50)

Cc1ccc(OCc2nccc3ccccc23)c(C=O)n1 [Compound 93, 3-(isoquinolin-1-ylmethoxy)-6-methylpicolinaldehyde]
delta R [3]: + (a delta R of between 0 and 30)
delta p50% Values for Whole Blood Assay [1]: + (a delta p50% of between 0 and 29)
delta p50% [2]: ++ (a delta p50% of between 30 and 50)

COc1cc(C=O)c(OCc2cccc3ocnc23)cn1 [Compound 103, 5-(benzo[d]oxazol-4-ylmethoxy)-2-methoxyisonicotinaldehyde]
delta R [3]: ++ (a delta R of between 30 and 50)
delta p50% Values for Whole Blood Assay [1]: + (a delta p50% of between 0 and 29)
delta p50% [2]: ++ (a delta p50% of between 30 and 50)

Cc1ccc(OCc2ccnc3cccnc23)c(C=O)n1 [Compound 106, 3-((1,5-naphthyridin-4-yl)methoxy)-6-methylpicolinaldehyde]
delta p50% Values for Whole Blood Assay [1]: + (a delta p50% of between 0 and 29)
delta p50% [2]: ++ (a delta p50% of between 30 and 50)

Cc1ccc(OCc2ccc3c(cnn3C)c2)c(C=O)n1 [Compound 108, 6-methyl-3-((1-methyl-1H-indazol-5-yl)methoxy)picolinaldehyde]
delta R [3]: +++ (a delta R of 50 or greater)
delta p50% Values for Whole Blood Assay [1]: + (a delta p50% of between 0 and 29)
delta p50% [2]: ++ (a delta p50% of between 30 and 50)

COCCOc1cc(C=O)c(OCc2cccnc2-c2ccnn2CCC(F)(F)F)cn1 [Compound 209, 2-(2-methoxyethoxy)-5-((2-(1-(3,3,3-trifluoropropyl)-1H-pyrazol-5-yl)pyridin-3-yl)methoxy)isonicotinaldehyde]
delta p50% Values for Whole Blood Assay [1]: + (a delta p50% of between 0 and 29)
